Columns and labels:
[1] = tested on: bone marrow (BM) blasts; assay: Clinical study of change in bone marrow blasts, BLC2 inhibitor naive vs prior-exposed patients; assay type: in vivo, human patients
Source text: FIG. 1A is a graph showing the results of a clinical study for the efficacy of emavusertib (Compound 1) administration on reducing bone marrow (BM) blasts in patients with blood cancer. Blasts are immature white blood cells that are usually found in small numbers in healthy bone marrow. High levels of blasts circulating in the blood are associated with cancer. This clinical study measured the change in blast levels before and after receiving Compound 1 treatment. Here, the relative change in blast levels before and after Compound 1 is compared between patients who had previously received BLC2 inhibitors in prior treatment and patients who were naïve to BLC2 inhibitors. The comparison groups each contain 22 high risk myelodysplastic syndrome (hrMDS) patients and 10 acute myeloid leukemia (AML) patients.
FIG. 1B is a graph showing baseline and best post-treatment blast levels of the subjects in FIG. 1A. […] Each patient is shaded according to their diagnosis, with high-risk myelodysplastic syndrome (MDS) patients tending to have lower blast levels than acute myeloid leukemia (AML) patients.
To support the development of effective treatment regimens with Compound 1, a study was conducted to monitor bone marrow (BM) samples obtained from AML and high risk MDS patients with different prior histories of treatment.
(§1) • Pharmacokinetic parameters of Compound 1 measured by Cmax, Cmin, Tmax, AUC0-24, AUC0-inf, and T1/2 (time frame 24 months) • Clinical response in AML or hrMDS assessed as follows: • AML: • Proportion of patients who reach CR+CRh • Proportion of patients who reach CRi, or CR or CRh • hrMDS: overall response rate of CR+PR+mCR • Transfusion independence
This is a Phase 1, open-label dose escalation and cohort expansion study of Compound 1 as a monotherapy in patients with AML or MDS and in combination with AZA in treatment-naïve, adult patients with AML or hrMDS, after first line therapy.

[2] = Study Compound 1-101 (safety, exposure, activity at 200 mg BID); assay type: in vivo
Source text: Three patients with AML or MDS will be enrolled at the designated dose. If none of the first 3 patients experience a dose-limiting toxicity during the first cycle, patients may be enrolled into the next higher dose level. If 1 patient out of the first 3 experiences a dose-limiting toxicity, the dose level may be expanded with an additional 3 patients.

[3] = tested on: AML and high-risk MDS; assay: Ongoing Phase 1 study in relapsed/refractory AML and high-risk MDS; assay type: in vivo, human patients; conditions: patients with relapsed/refractory AML and high-risk MDS
Description: To support the development of effective treatment regimens with Compound 1, a study was conducted to monitor bone marrow (BM) samples obtained from AML and high risk MDS patients with different prior histories of treatment. […]
• MTD (defined as the highest dose at which there is <33% dose-limiting toxicity rate in the first cycle of treatment in a minimum of 6 patients [time frame: 28 days]) • RP2D (determined by the Sponsor in consultation with the CSC, considering all aspects of safety, tolerability, biologic activity, pharmacokinetic and preliminary efficacy in the trial population [time frame: 24 months]) • Safety measured by adverse events, ECGs, chemistry and hematology laboratory values, vital signs, and physical examinations […]
as §1, with “independence […]” for “independence”

**Q.** Which “rate of response to Compound 1, as evidenced by reduced BM blast counts” value ([1]; AML and high risk MDS, no history of BLC2 inhibitor treatment vs prior exposure) does the source give for `Cc1cc(-c2nc(C(=O)Nc3cc4oc(N5CCOCC5)nc4nc3N3CC[C@@H](O)C3)co2)ccn1` [Compound 1] here?
**A.** higher rate of response to Compound 1, as evidenced by reduced BM blast counts in hematology, compared to patients who had prior exposure to a BLC2 inhibitor

**Q.** What about the “decrease in bone marrow blast counts from baseline to best post-baseline” value ([1]; no prior vs prior BLC2 inhibitor exposure, hrMDS and AML patients, FIG. 1B) of the same compound?
**A.** significantly higher decreases in bone marrow blast counts from baseline to best post-baseline compared to those subjects with prior BLC2 inhibitor exposure

**Q.** And the “relative change in bone marrow blast levels before and after Compound 1” value ([1]; patients naive to BLC2 inhibitors (e.g., venetoclax) vs previously exposed, comparison groups each 22 hrMDS and 10 AML, FIG. 1A)?
**A.** significant reduction in blasts compared to those who had been previously exposed to BLC2 inhibitors

**Q.** And the “biologic activity and clinical efficacy” value [2]?
**A.** demonstrating signs of biologic activity and clinical efficacy

**Q.** And the drug exposure [2]?
**A.** capable of achieving relevant levels of drug exposure

**Q.** And the “safety of starting dose” value [2]?
**A.** safe

**Q.** And the clinical activity [3]?
**A.** demonstrated clinical activity

From patent US20260315484A1, “METHODS OF TREATING CANCER IN BCL2 INHIBITOR NAIVE SUBJECTS” (Curis, Inc., priority 2023, published 2026)
